Key:
Hepatitis C virus = experiment: Antiviral activity against HCV infected in human hepatoma cells by replicon assay; type: functional, Hepacivirus hominis
Rattus norvegicus = experiment: Metabolic stability in rat liver assessed as nucleoside triphosphate formation at 30 umol/kg, po after 6 hrs; conditions: in vivo
Hepatocyte [1] = experiment: Metabolic stability in human hepatocyte assessed as nucleoside triphosphate at 10 uM level after 2 hrs; conditions: hepatocytes
Hepatocyte [2] = experiment: Metabolic stability in rat hepatocyte assessed as nucleoside triphosphate at 10 uM level after 2 hrs; conditions: hepatocytes

Row | SMILES | Activity (Hepatitis C virus) | Stability (Rattus norvegicus) | Stability (Hepatocyte [1]) | Stability (Hepatocyte [2])
1 | CC(C)C(=O)O[C@H]1CCN(P(=O)(OC[C@H]2O[C@@H](n3ccc(N)nc3=O)[C@](C)(O)[C@@H]2O)Oc2ccccc2)C1 (some centres not stated) | <20000 nM | – | – | –
2 | CCCC(CCC)C(=O)OCCNP(=O)(OC[C@H]1O[C@@H](n2ccc(N)nc2=O)[C@](C)(O)[C@@H]1O)Oc1ccccc1 (stereo in doubt; 10a) [2-((((2R,3R,4R,5R)-5-(4-AMINO-2-OXOPYRIMIDIN-1(2H)-YL)-3,4-DIHYDROXY-4-METHYLTETRAHYDROFURAN-2-YL)METHOXY)(PHENOXY)PHOSPHORYLAMINO)ETHYL 2-PROPYLPENTANOATE (DIASTEREOMERIC  MIX)] | 450 nM | – | – | –
3 | CC(C)CC(COC(=O)C(C)(C)C)NP(=O)(OC[C@H]1O[C@@H](n2ccc(N)nc2=O)[C@](C)(O)[C@@H]1O)Oc1ccccc1 (some centres not stated) | 1840 nM | – | – | –
4 | CCC(CC)C(=O)OCCNP(=O)(OC[C@H]1O[C@@H](n2ccc(N)nc2=O)[C@](C)(O)[C@@H]1O)Oc1ccccc1 (stereo in doubt; 9b) [DIASTEREOMERIC MIX] | 625 nM | – | – | –
5 | CC(C)(C)C(=O)OCCNP(=O)(OC[C@H]1O[C@@H](n2ccc(N)nc2=O)[C@](C)(O)[C@@H]1O)Oc1ccccc1 (some centres not stated) | 226 nM | – | – | –
6 | C[C@@]1(O)[C@H](O)[C@@H](COP(=O)(NCCOC(=O)c2ccccc2)Oc2ccccc2)O[C@H]1n1ccc(N)nc1=O (some centres not stated) | 1960 nM | 0.3 nmol/g | – | –
7 | CC(C)C(=O)OCC(Cc1ccccc1)NP(=O)(OC[C@H]1O[C@@H](n2ccc(N)nc2=O)[C@](C)(O)[C@@H]1O)Oc1ccccc1 (some centres not stated) | 921 nM | – | – | –
8 | CC(C)[C@H](N)C(=O)O[C@@H]1[C@@H](CO)O[C@@H](n2ccc(N)nc2=O)[C@]1(C)O [VALOPICITABINE] | 7600 nM | 0.2 nmol/g | 17 µM | < 14 µM
9 | CCCC(CCC)C(=O)OCCNP(=O)(OC[C@H]1O[C@@H](n2ccc(N)nc2=O)[C@](C)(O)[C@@H]1O)Oc1ccccc1 (stereo in doubt; 10b) [2-((((2R,3R,4R,5R)-5-(4-AMINO-2-OXOPYRIMIDIN-1(2H)-YL)-3,4-DIHYDROXY-4-METHYLTETRAHYDROFURAN-2-YL)METHOXY)(PHENOXY)PHOSPHORYLAMINO)ETHYL 2-PROPYLPENTANOATE (DIASTEREOMERIC  MIX)] | 240 nM | 0.2 nmol/g | – | –
10 | C[C@@]1(O)[C@H](O)[C@@H](COP(=O)(NCCOC(=O)C2CCCCCC2)Oc2ccccc2)O[C@H]1n1ccc(N)nc1=O (some centres not stated) | 1160 nM | – | – | –
11 | CCC(CC)C(=O)OCCNP(=O)(OC[C@H]1O[C@@H](n2ccc(N)nc2=O)[C@](C)(O)[C@@H]1O)Oc1ccccc1 (stereo in doubt; 9) [DIASTEREOMERIC MIX] | 2830 nM | – | – | –
12 | CC(CNP(=O)(OC[C@H]1O[C@@H](n2ccc(N)nc2=O)[C@](C)(O)[C@@H]1O)Oc1ccccc1)OC(=O)C(C)C (some centres not stated) | 585 nM | – | – | –
